Measurements taken from patent US12220404B2, “Treatment and management of augmentation in restless legs syndrome” (East Carolina University, priority 2015, dated 2025).
Entries after “also recorded” stand apart in the source; their conditions may differ.

Key:
[1] = test system: isolated spinal cord (monosynaptic stretch reflex); test: Spinal reflex amplitudes (SRAs) in the isolated spinal cord; parameters: species or system mice
Protocol: Animals will be anesthetized with ketamine/xylazine and decapitated, and the spinal cord carefully dissected out of the body cavity and placed in a Sylgard-lined (Dow Corning, Midland MI) Petri dish in cooled (<4° C.) artificial cerebrospinal fluid (ACSF) containing (in mM); 125 NaCl, 2.5 KCl, 2 CaCl2, 1 MgCl2, 25 glucose, 1.25 NaH2PO4, and 26 NaHCO3 at a pH of 7.4, oxygenated with 95% O2-5% CO2. After opening and removing the dura mater, to facilitate the access of ACSF to the cord, dorsal and ventral roots will be identified and pinned out with small insect pins. Preparations will either be left intact (in animals less than 7 days old) or hemisected mid-sagittally (>1 week old animals). The hemisection in the older animals helps better oxygenate the tissue and extends the life expectancy of the isolated preparation. Under these conditions, we can hold the spinal cord functionally alive for more than 24 hours, and we have been able test SRAs in individual preparations for up to 48 hours. After a 30-60 min recovery at room temperature, glass suction electrodes will be placed on the distal parts of dorsal and ventral roots of lumbar segments L2-L5. […] For the analyses, reflex responses will be rectified and the calculated integrals of these responses measured and compared between epochs of identical duration before and after drug application. For short-term assessments of drug effects, we will average the last ten consecutive SRAs measured before drug application with the last ten consecutive SRAs after 30 min of application of the drugs per epoch. […]
Statistical Analysis: For the experiments on the isolated spinal cords, we will measure SRAs under control and drug conditions, and data will be averaged and normalized to the mean of the pre-drug values. Statistical significance will be determined with One-Way ANOVA and subsequent post-hoc comparisons or t-tests, as appropriate, and with a set <0.05 (SigmaPlot, Systat, San Jose, CA).

wild type (WT) animals = test: Thermal pain withdrawal reflex latencies (Hargreaves apparatus); assay type: in vivo, mice; settings: for thermal withdrawal latencies: WT, pramipexole 0.5 mg/kg, SCH 39166 0.1 mg/kg
Protocol: Assessment of baseline pain withdrawal reflex latencies (“thermal pain”): RLS is first and foremost a sensory disorder that is accompanied by a motor component. The clinical sensations (“urge to move”) stem from deep muscle tissues and are considered “painful” by many, if not most patients, unless acted on immediately (moving of the limbs). Pain from deep muscles is carried by both unmyelinated C-fibers (both peptidergic and non-peptidergic) as well as a-∂ fiber. Pain due to thermal stimulus energy is carried specifically by subsets of these nociceptors that express the transient receptor potential-V1 protein (TRPV1). These TRPV1 expressing nociceptors also have extensive cutaneous distribution and are easily activated by a heat source applied to the surface of the skin. Thus the thermal pain stimulus tested in the Hargreaves apparatus (IITC, Inc., Life Science, Model 39D) provides an appropriate surrogate for monitoring changes in deep muscle nociceptor activity that may be present in RLS, and the latencies to withdraw the hindpaw from a noxious thermal stimulus applied to the plantar surface of the hindpaw provide a measure of pain sensitivity. Animals will be removed from their home cages and placed individually in the small Plexiglas containers of the Hargreave's system (4″ width×4″ length×5″ height). The behavior room has optional low light settings to minimize visual perturbations. Each day, animals will be acclimatized on the Hargreaves platform for 1-2 hrs. Subsequently, baseline withdrawal latencies will be determined for each animal, with five independent trials performed per hindpaw per session and a mean latency calculated for each day. The tests will be administered over 4 days.
Drug injection protocol: After establishing baseline parameters, each animal will receive in weeks 1-4 once daily a single-drug i.p. injection of the respective compound: 0.9% NaCl (sham), the D3R agonist (pramipexole) at 0.1 or 0.5 mg/kg, or the D1R antagonist ecopipam ([…]) at 0.1 mg/kg, and tested for thermal pain withdrawal tolerance (details in flow chart, FIG. 5). […] Each cohort will be treated independently of each other, but all animals will receive their respective i.p. injections daily (7 days/week) between 9-11 am in the morning, to avoid possible conflicts with the circadian cycle. Thermal pain withdrawal reflexes will be tested as above on 4 subsequent days per week in the afternoon, starting on the second day of the drug injections. Subgroups a) of each cohort will be euthanized after 1 week, with subgroups b)-d) following suite in 1-week intervals (FIG. 5).
Statistical Analysis: For the behavioral experiments, withdrawal latencies under drug conditions will be averaged and normalized to the mean of the pre-drug values, and statistical significance will be determined with RM ANOVA and subsequent post-hoc comparisons, as appropriate, and with a set <0.05 (SigmaPlot, Systat, San Jose, CA). For the data analysis of the Western blots, we will use One-way ANOVA testing to assess significance, and identify group differences with appropriate post-hoc comparisons (e.g. Holm-Sidak).

[2] = short-term bath application (less than 30 min)

## Oc1cc2c(cc1O)C(c1ccccc1)CNCC2 (stereo not drawn) [SKF 38393]
[1]; [2]
  spinal reflex amplitudes (SRAs): significantly increased them; also recorded: increases SRAs

## CCCN[C@H]1CCc2nc(N)sc2C1 [pramipexole]
Wild type (WT) animals; acute treatment
  thermal withdrawal latencies: 152.9+/−2.8 % of control
Wild type (WT) animals; after 4 weeks of daily injections with pramipexole, 1 hr post-injection
  post-injection withdrawal latencies: 75.2+/−32%
Wild type (WT) animals; week 1, one hour after the first injection, 0.5 mg/kg pramipexole
  post injection withdrawal latencies: 194.65%±27
Wild type (WT) animals; week 1, pramipexole 0.5 mg/kg/day chronic injections
  withdrawal latencies to a thermal stimulus, weekly average: 204.81%±6.3 % of control
Wild type (WT) animals; week 2, pramipexole 0.5 mg/kg/day chronic injections
  withdrawal latencies to a thermal stimulus, weekly average: 158+/−12 % of control
Wild type (WT) animals; week 3, pramipexole 0.5 mg/kg/day chronic injections
  withdrawal latencies to a thermal stimulus, weekly average: 135+/−6.5 % of control
Wild type (WT) animals; week 4, pramipexole 0.5 mg/kg/day chronic injections
  withdrawal latencies to a thermal stimulus, weekly average: 85+/−11 % of control

## CCCN1C[C@H](CSC)C[C@@H]2c3cccc4[nH]cc(c34)C[C@H]21 [pergolide]
[1]; [2]
  spinal reflex amplitudes (SRAs): significantly decreased SRAs; also recorded: significantly decreases SRAs over control

## CN1CCc2cc(Cl)c(O)cc2[C@H]2c3ccccc3CC[C@@H]21 [SCH 39166, ecopipam]
Wild type (WT) animals; acute treatment
  thermal withdrawal latencies: 131+/−6.5 % of control
Wild type (WT) animals; acute treatment, result in words
  acute modulation of thermal withdrawal responses (FIG. 2): increase withdrawal latencies
Wild type (WT) animals; animals treated for 4 weeks with pramipexole, 1 hour post-injection
  withdrawal latencies after single injection of D1R antagonist: 150.+/−15%
Wild type (WT) animals; daily for 4 weeks, current data sets, result in words
  long-term effect on withdrawal latencies: does not have a significant effect
Wild type (WT) animals; non-treated group, week 1, one hour after the injection
  withdrawal latencies after single injection of D1R antagonist: 151 +/−13%
[1]; additional bath-application after prolonged pramipexole exposure
  spinal reflex amplitudes (SRAs): decreased
